The values that follow come from patent US20080255224A1, “PHARM[…] OF PSORIASIS” (priority 2007, published 2008).

For series [1] the following is noted: prior use for nausea and vomiting of chemotherapy; cited from earlier work.
Another series concerns psoriasis. Briefly: Oral nabilone in a patient suffering from psoriasis, inpatient, unblinded. The class given is in vivo, human. Here is the method:
A patient suffering from psoriasis was treated with oral nabilone on an inpatient, unblinded basis. The patient suffered from psoriasis which had not responded well to prior drug treatments. To assess whether nabilone was beneficial in alleviating symptoms, nabilone at a dose of 1 mg was added to all other anti-inflammatory and anti-psoriatic medications. The results were dramatic. The regimen administered was a 0.5 mg dosage twice daily for four days, and then 1 mg twice daily for five days and eventually 1 mg daily was administered to the patient. Itch which had been intolerable and incessant abolished with the 1st dose. By the 10th day of therapy the skin redness had disappeared.

The subject of series [2] is keratinocyte proliferation. The following applies: in vitro; cited from earlier work.
In series [3] the test system is epidermal keratinocyte differentiation. Conditions: cited from earlier work.

With `CCCCCCC(C)(C)c1cc(O)c2c(c1)OC(C)(C)C1CCC(=O)CC21` (centres unmarked) [nabilone], in series [1], the Immunosuppressive potential result is reported as “does not show immunosuppressive potential” and the Tolerability entry is “well tolerated”. For the same compound, in the series on psoriasis (oral nabilone added to all other anti-inflammatory and anti-psoriatic medications, with the 1st dose (0.5 mg)), the Itch entry is recorded as “abolished”. In the series with psoriasis (oral, by the 10th day of therapy (0.5 mg twice daily for four days, then 1 mg twice daily for five days, then 1 mg daily)), the Skin redness result is recorded as “disappeared”.

With `COc1ccc2c(c1)c(CC(=O)N1CCOCC1)c(C)n2C(=O)c1ccc(Cl)cc1` [BML 190], the “Inhibition of keratinocyte proliferation” value in series [2] is given as “only partial inhibition”.

With `CCCCCCC(C)(C)c1cc(O)c2c(c1)OC(C)(C)[C@@H]1CC=C(CO)C[C@@H]21` [HU210], in series [2], the “Inhibition of keratinocyte proliferation” value was “concentration-dependent response”.

On to `CCCn1c(C)c(C(=O)c2cccc3ccccc23)c2ccccc21` [JWH015], for which the “Inhibition of keratinocyte proliferation” value in series [2] is “only partial inhibition”.

For the compound `CCCCC/C=C\C/C=C\C/C=C\C/C=C\CCCC(=O)NCCO` [Anadamide], the “Effect on epidermal keratinocyte differentiation” value in series [3] is on record as “inhibits”.
